Reference: US9133163B2, “Dihydropyrazole GPR40 modulators” (Bristol-Myers Squibb Company, priority 2012, dated 2015)

Key:
C57BL6 mice = assay: Acute oral glucose tolerance test; format: in vivo; conditions: % change in glucose AUC (0-180 min) from vehicle, 0.3 mg/kg oral, co-administered with glucose 2 g/kg
Procedure: Acute Oral Glucose Tolerance Test
Ten week old C57BL6 mice were housed individually and fasted for 5 hours on the day of study. Tail vein sampling was performed from nicked tails to obtain plasma samples. Baseline plasma samples were taken at t=0. Mice were orally treated with vehicle or compounds co-administered with glucose (2 g/kg). Sampling thereafter from tails of treated mice at 20, 40, 60, 120 and 180 min provided data used for generating glucose excursion curves from which 0-180 min blood glucose excursion profiles were generated. The area under the curve (AUC) allowed for assessment of glucose lowering by compound treatments. Blood samples were collected in EDTA-treated tubes (MICROVETTE® CB300, Sarstedt, Numbrecht, Germany), stored on ice and spun @ 6000 rpm for 10 minutes. Plasma glucose was analyzed on the same day using an AU680 Clinical Chemistry Analyzer (Beckman Coulter, Brea, Calif.). Statistical analysis is a one way ANOVA with Dunnett's post hoc test or two-way student's t test where appropriate. P values less than 0.05 were considered statistically significant.

hGPR40 [1] = molecular target: T1, hGPR40 (Homo sapiens, UniProt O14842); assay: GPR40 IP-One HTRF assay in HEK293/GPR40 inducible cell lines; format: cell-based; design: expressed in transfected cells; conditions: HEK293 cells with tetracycline-inducible human GPR40; read-out: hGPR40 IP1 EC50
Procedure: GPR40 IP-One HTRF Assays in HEK293/GPR40 Inducible Cell Lines
Human, mouse and rat GPR40-mediated intracellular IP-One HTRF assays were established using human embryonic kidney HEK293 cells stably transfected with a tetracycline-inducible human, mouse or rat GPR40 receptor. Cells were routinely cultured in growth medium containing DMEM (Gibco Cat. #12430-047), 10% qualified FBS (Sigma, Cat. #F2442), 200 μg/ml hygromycin (Invitrogen, Cat. #16087-010) and 1.5 μg/ml blasticidin (Invitrogen, Cat. #R210-01). About 12-15 million cells were passed into a T175 tissue culture flask (BD FALCON® 353112) with growth medium and incubated for 16-18 hours (overnight) at 370 C with 5% CO2. The next day, assay medium was exchanged with growth medium containing 1000 ng/mL of tetracycline (Fluka Analytical, Cat. #87128) to induce GPR40 expression for 18-24 hours at […] incubator with 5% CO2. After induction, the cells were washed with PBS (Gibco, Cat. #14190-036) and detached with Cell Stripper (CELLGRO®, Cat. #25-056-CL). 10-20 mL growth medium were added to the flask and cells were collected in 50 mL tubes (FALCON®, Cat. #352098) and spun at 1000 RPM for 5 minutes. Culture medium was aspirated and the cells were resuspended in 10 mL of 1× IP-One Stimulation Buffer from the Cisbio IP-One kit (Cisbio, Cat. #62IPAPEJ). The cells were diluted to 1.4×10^6 cells/mL in Stimulation Buffer.
Test compounds were 3-fold, 11-point serially diluted in DMSO in a REMP assay plate (Matrix Cat. #4307) by BIOCEL® (Agilent). The compounds were transferred into an Echo plate (LABCYTE, Cat. #LP-0200) and […] of diluted compounds were transferred to an assay plate (proxi-plate from Perkin Elmer, Cat. #6008289) by Echo acoustic nano dispenser (LABCYTE, model ECHO550). 14 μL of the diluted cells were then added to the assay plate by Thermo (SN 836 330) CombiDrop and incubated at room temperature for 45 minutes. Then 3 μL of IP1 coupled to dye D2 from the Cisbio IP-One kit were added to the assay plate followed by 3 μL of Lumi4TM-Tb cryptate K from the kit. The plate was further incubated at room for 1 hour before reading on the Envision (Perkin Elmer Model2101) with an HTRF protocol. Activation data for the test compound over a range of concentrations was plotted as percentage activation of the test compound (100%=maximum response). After correcting for background [(sample read-mean of low control)/(mean of high control−mean of low control)](low control is DMSO without any compound), EC50 values were determined. The EC50 is defined as the concentration of test compound which produces 50% of the maximal response and was quantified using the 4 parameter logistic equation to fit the data.

hGPR40 [2] = molecular target: T1, hGPR40; assay: FDSS-based intracellular calcium assay; format: cell-based; design: 3xFLAG; expressed in transfected cells; conditions: intracellular Ca2+ response, cells expressing GPR40
Procedure: FDSS-Based Intracellular Calcium Assay
Compounds are dissolved in DMSO and diluted to desired concentrations with assay buffer and added to the cells as 3× solution (20 μL per well). Run fluorescence/luminescence reader FDSS (Hamamatsu) to read intracellular Ca^2+ response.

T1 sequence (O14842 whole entry): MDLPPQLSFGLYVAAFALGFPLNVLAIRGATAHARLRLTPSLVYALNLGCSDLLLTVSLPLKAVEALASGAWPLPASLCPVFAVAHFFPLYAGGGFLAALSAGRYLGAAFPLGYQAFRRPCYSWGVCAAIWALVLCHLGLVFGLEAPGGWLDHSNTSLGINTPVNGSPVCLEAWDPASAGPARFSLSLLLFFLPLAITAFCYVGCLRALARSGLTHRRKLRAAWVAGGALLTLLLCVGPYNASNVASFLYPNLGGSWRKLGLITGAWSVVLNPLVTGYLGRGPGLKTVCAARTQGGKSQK

In the case of `COc1cc(N2CC[C@@H](Oc3ccc(N4N=C(C(F)(F)F)[C@@H](C)[C@@H]4CC(=O)O)cc3)[C@H](C)C2)c(Cl)cn1` (single isomer, unassigned) [Example 81, Isomer 2 (neutral form)], the “Acute oral glucose tolerance” value (C57BL6 mice) is reported as −54%, the EC50 (hGPR40 [1]) is reported as 9 nM and the EC50 (hGPR40 [2]) is reported as 71 nM.

With `CCOc1ccc(F)c(N2CCC(Oc3ccc(N4N=C(c5ccc(C#N)cc5)[C@@H](C)[C@@H]4CC(=O)O)cc3)CC2)c1` [Example 93, 2-((4S,5S)-3-(4-Cyanophenyl)-1-(4-((1-(5-ethoxy-2-fluorophenyl)piperidin-4-yl)oxy)phenyl)-4-methyl-4,5-dihydro-1H-pyrazol-5-yl)acetic acid] the “Acute oral glucose tolerance” value (C57BL6 mice) was −56%, the EC50 (hGPR40 [1]) was 7 nM and the EC50 (hGPR40 [2]) was 82 nM.
